Test results taken from US20250320496A1, “MODULATION OF ABCB11 GENE TRANSCRIPTION USING ANTISENSE OLIGONUCLEOTIDES TARGETING REGULATORY RNAS” (CAMP4 Therapeutics Corporation, priority 2022, published 2025).
Strand notation (5' to 3'): a small letter for the sugar, then the base; units joined by * are phosphorothioate-linked, units joined directly phosphodiester-linked; [ ] holds rarer units or linkages, { } end groups; capitals alone tell only the bases. e = 2'-O-(2-methoxyethyl) (MOE); l = locked nucleic acid (LNA); [5mC] = 5-methylcytosine; d = 2'-deoxy (DNA)

Tested on: human ABCB11 mRNA
Assay: ASO treatment of primary human hepatocytes (PHH), ABCB11 mRNA by RT-qPCR normalized to B2M
Assay type: cell-based
Set-up: ABCB11 mRNA, dose titration: unit of the concentration uncertain
Details: for ABCB11 mRNA FC (5 μM ASO vs. UNT) / ABCB11 FC mRNA (5 μM ASO vs. untreated): primary human hepatocytes; for ABCB11 mRNA FC (5 μM ASO vs. UNT): normalized to untreated PHHs (UNT); for ABCB11 FC mRNA (5 μM ASO vs. untreated): 5 μM ASO with PO-modifications, normalized to untreated hepatocytes
Experimental: Primary human hepatocytes (PHH) were thawed using Lonza Human Cryopreserved Hepatocyte Thawing Medium and plated in 96-well collagen-coated plates (5.5-6.0×10^4 cells per well). Four hours later, the media was replaced with sterile-filtered QualGro™ Hepatocyte Culture Medium (BioIVT) containing antibiotic supplement, 0.3 mg/ml Matrigel® matrix (Corning®), and ASO at the desired concentration (e.g., 1.25 μM, 2.5 μM, 5 μM, or 10 μM). After 72 hrs., cells were harvested by aspirating media, washing once with phosphate-buffered saline (PBS), and lysed with 150 μl of Buffer RLT lysis buffer (Qiagen®). Plates were frozen at-80° C. during cell lysis. After thawing, total RNA was isolated using the Qiagen RNEasy kit as instructed by manufacturer. cDNA (random-primed) was synthesized from 10 μl of RNA using the LifeTech High Capacity cDNA Reverse Transcription kit. 2 μl of cDNA was used for reverse transcription-quantitative PCR (RT-qPCR) analyses using standard Taqman” reagents from Applied Biosystems™ to measure ABCB11 and CYP7A1 gene expression. Gene expression data was normalized to the housekeeper gene, beta-2-microglobulin (B2M).
To assess the ability of ASOs targeting ABCB11 regRNAs to modulate the expression of human ABCB11, 195 ASOs targeting the human ABCB11 regRNAs were synthesized. These initial ASOs were screened in PHHs at 5 μM to determine their efficacy in increasing human ABCB11 mRNA using quantitative PCR. This initial screen identified 10 ASOs that induced increased expression of ABCB11 mRNA by more than 1.5-fold (as compared to untreated PHHs).

| Substance | ABCB11 mRNA FC (5 μM ASO vs. UNT) | other results |
| --- | --- | --- |
| CO-4058 (antisense eG*eA*eT*eT*e[5mC]*eA*e[5mC]*eA*eA*eG*eA*eA*eG*eG*eG*eA*eG*eA*eG*eG) | 1.134 fold change |  |
| CO-4027 (antisense eG*eT*eG*eG*eA*eG*eT*eGeT*eT*eT*e[5mC]*eT*eG*eG*eT*eT*eT*eA*eT) | 1.095 fold change |  |
| CO-7169 (antisense eT*eT*eA*eT*eT*eT*eG*eG*e[5mC]*eG*eT*eT*eA*eT*eT*eA*eA*eT*eT*e[5mC]) | 1.289 fold change |  |
| CO-7020 (antisense eA*eA*eG*eT*eG*dA*dG*lG*d[5mC]*dA*lT*d[5mC]*dA*lG*dG*dT*lA*dA*dG*eT*eT*e[5mC]*e[5mC]*eT) | 1.133 fold change |  |
| CO-4518 (antisense e[5mC]*eT*eA*e[5mC]*eT*eA*eG*eT*eT*eG*eT*eT*eA*e[5mC]*eA*e[5mC]*e[5mC]*eT*eT*eA) | 0.981 fold change |  |
| CO-4056 (antisense eG*e[5mC]*eT*eT*eA*eT*eT*eT*eG*eA*e[5mC]*eT*e[5mC]*eA*eA*eG*eA*e[5mC]*e[5mC]*eT) | 1.115 fold change |  |
| CO-11217 (antisense eG*eTlG*eG*lA*eGl[5mC]*eA*lA*eAl[5mC]eT*lA*eGlG*e[5mC]*lA*e[5mC]eT*eG) |  | ABCB11 FC mRNA (5 μM ASO vs. untreated): 2.10 fold change |
| CO-4484 (antisense eG*e[5mC]*eT*eA*eA*eT*e[5mC]*e[5mC]*eA*eA*e[5mC]*e[5mC]*eA*e[5mC]*eT*eT*e[5mC]*eA*eA*e[5mC]) | 1.113 fold change |  |
| CO-7155 (antisense eA*e[5mC]*e[5mC]*eT*eT*dA*dG*lG*dA*dG*lG*dA*dT*lT*dA*dT*lT*dT*dA*eA*e[5mC]*e[5mC]*eT*e[5mC]) | 1.253 fold change |  |
| CO-6977 (antisense eG*eG*eT*eA*eA*eG*eT*eT*e[5mC]*e[5mC]*eT*eG*eA*eA*eG*eT*eG*eG*eA*eG) | 1.15 fold change |  |
| CO-7180: derivative ASO with additional chemical modifications based on parent ASO CO-4529 (antisense eG*eT*lG*eG*eA*lG*e[5mC]*eA*lA*eA*e[5mC]*lT*eA*eG*lG*e[5mC]*eA*l[5mC]*eT*eG) | 2.04 fold change |  |
| CO-4512 (antisense eA*eA*e[5mC]*eG*eGeAeAeG*eG*eGeTeT*eAeA*eA*eG*eG*eT*eA*eT) | 1.087 fold change |  |
| CO-7037 (antisense e[5mC]*eT*eG*eT*eA*e[5mC]*eA*eT*eT*eT*eA*eG*eA*eG*eA*e[5mC]*eA*eA*eA*eG) | 1.136 fold change |  |
| CO-7089 (eA*e[5mC]*e[5mC]*l[5mC]*e[5mC]*d[5mC]*d[5mC]*lT*d[5mC]*dA*d[5mC]*l[5mC]*dT*dT*dG*lG*eT*eT*e[5mC]*e[5mC]; antisense) | 1.249 fold change |  |
| CO-4519 (antisense eA*eG*eA*e[5mC]*eT*eG*eG*e[5mC]*eA*eT*eGeT*eG*eG*e[5mC]*eT*eT*e[5mC]*eA*e[5mC]) | 1.061 fold change |  |
| CO-4514 (antisense eG*e[5mC]*eG*eG*eG*eA*eT*eT*eA*eG*eA*eT*eG*eA*eG*eG*eT*e[5mC]*eT*eA) | 1.175 fold change |  |
| CO-7181: derivative ASO with additional chemical modifications based on parent ASO CO-4529 (antisense eG*eT*eG*eG*lA*eG*e[5mC]*eA*lA*eA*e[5mC]*eT*lA*eG*eG*e[5mC]*lA*e[5mC]*eT*eG) | 1.603 fold change |  |
| CO-11237 (antisense eG*eTeGeGlAeGe[5mC]*eA*eA*lA*e[5mC]*eT*eA*eGlGe[5mC]eAe[5mC]eT*eG) |  | ABCB11 FC mRNA (5 μM ASO vs. untreated): 1.56 fold change |
| CO-7196 (eG*eG*eT*eG*eG*eA*eG*e[5mC]*eA*eA*eA*e[5mC]*eT*eA*eG*eG*e[5mC]*eA*e[5mC]*eT*eG*eA; antisense) | 1.33 fold change |  |
| CO-4509 (antisense eT*eG*eG*eA*eT*eG*eT*eA*eG*eA*eT*eG*eA*eA*eT*eG*eG*e[5mC]*eA*eA) | 1.233 fold change |  |
| CO-11208 (antisense eT*eG*eTeT*eTeT*eGe[5mC]*eTeT*eGeG*eTe[5mC]*eAeA*eGeA*eG*eG) |  | ABCB11 FC mRNA (5 μM ASO vs. untreated): 1.04 fold change |

| Substance | ABCB11 mRNA FC (5 μM ASO vs. UNT) | other results |
| --- | --- | --- |
| CO-7038 (antisense eA*eA*e[5mC]*eT*eG*eT*eA*e[5mC]*eA*eT*eT*eT*eA*eG*eA*eG*eA*e[5mC]*eA*eA) | 1.189 fold change |  |
| CO-7055 (antisense eT*e[5mC]*eA*e[5mC]*e[5mC]*e[5mC]*e[5mC]*e[5mC]*e[5mC]eT*e[5mC]*eA*e[5mC]*e[5mC]*eT*eT*eG*eG*eT*eT) | 1.498 fold change |  |
| CO-4529: ASO targeting eRNA RR64 of human ABCB11 (antisense eG*eT*eG*eG*eA*eG*e[5mC]*eA*eA*eA*e[5mC]*eT*eA*eG*eG*e[5mC]eA*e[5mC]*eT*eG) | 1.05 fold change | ABCB11 mRNA, dose titration (PHHs, CO-3986 and CO-4529 tested at 2.5 (unit uncertain), 5 μM, and 10 μM): dose-dependent increase |
| CO-7178: derivative ASO with additional chemical modifications based on parent ASO CO-4529 (antisense eG*eT*eG*lG*eA*lG*e[5mC]*lA*eA*lA*e[5mC]*lT*eA*lG*eG*l[5mC]*eA*l[5mC]*eT*eG) | 1.737 fold change |  |
| CO-7098 (eA*eT*e[5mC]eT*eG*eG*dA*dA*dA*dA*dT*dA*dA*dT*dG*d[5mC]*e[5mC]*eT*eT*eT*e[5mC]*eT) | 1.04 fold change |  |
| CO-11243 (antisense eG*eT*eGeG*lA*eGe[5mC]*eA*eAlA*e[5mC]*eTeA*eG*lGe[5mC]*eA*e[5mC]eT*eG) |  | ABCB11 FC mRNA (5 μM ASO vs. untreated): 1.71 fold change |
| CO-6984 (antisense eT*eG*eA*eG*eG*eT*e[5mC]*eT*eA*eA*eT*eT*eT*eA*eG*eA*eA*eG*eA*e[5mC]) | 1.127 fold change |  |
| CO-7149: derivative ASO with additional chemical modifications based on parent ASO CO-4517 (antisense e[5mC]*e[5mC]*eT*eT*eA*eG*eG*eA*eG*eG*eA*eT*eT*eA*eT*eT*eT*eA*eA*e[5mC]*e[5mC]*eT) | 1.719 fold change |  |
| CO-7001 (antisense eG*eT*eG*eA*lG*eG*e[5mC]*eA*lT*e[5mC]*eA*eG*lGeT*eA*eA*lG*eT*eT*e[5mC]) | 1.237 fold change |  |
| CO-11205 (antisense eT*eGeT*eT*eT*eTeG*e[5mC]*eT*eTeG*eG*eT*e[5mC]eA*eA*eG*eAeG*eG) |  | ABCB11 FC mRNA (5 μM ASO vs. untreated): 1.11 fold change |
| CO-4522 (antisense e[5mC]*eA*e[5mC]*eT*eG*eG*e[5mC]*e[5mC]*e[5mC]*eA*eT*e[5mC]*eA*eA*eT*eT*eG*e[5mC]*eA*eT) | 1.027 fold change |  |
| CO-4023 (antisense e[5mC]*eA*e[5mC]*eA*eA*e[5mC]*eA*eT*eT*eG*eT*eA*eT*eA*e[5mC]*eA*eA*eT*eA*e[5mC]) | 1.092 fold change |  |
| CO-4050 (antisense e[5mC]*eA*eA*eA*eT*eG*eT*eT*e[5mC]*eT*eT*eT*eT*eA*eG*eG*eG*eT*eA*eT) | 0.968 fold change |  |
| CO-3993 (antisense eG*e[5mC]*e[5mC]*e[5mC]*e[5mC]*eT*eT*eG*eA*eA*eT*eA*eA*eT*eT*eT*eT*eT*eG*eT) | 1 fold change |  |
| CO-7105 (eT*eA*eT*e[5mC]*eT*dG*dG*lA*dA*dA*lA*dT*dA*lA*dT*dG*l[5mC]*d[5mC]*dT*eT*eT*e[5mC]*eT*eA; antisense) | 1.002 fold change |  |
| CO-4017 (antisense e[5mC]*eT*eG*e[5mC]*eT*e[5mC]*eA*eA*eA*eG*eT*eA*eA*eA*eA*eA*eT*eA*e[5mC]*e[5mC]) | 1.228 fold change |  |
| CO-7193: derivative ASO with additional chemical modifications based on parent ASO CO-4535 (eT*eG*eG*e[5mC]*eG*lT*eT*eA*eT*eT*lA*eA*eT*eT*e[5mC]*lT*eA*e[5mC]*eA*eG) | 1.555 fold change |  |
| CO-11228 (antisense eG*eT*lG*eG*eAlG*e[5mC]*eA*lAeA*e[5mC]*lT*eAeG*lG*e[5mC]*eAl[5mC]*eT*eG) |  | ABCB11 FC mRNA (5 μM ASO vs. untreated): 1.99 fold change |
| CO-3999 (antisense eG*eG*e[5mC]*eA*eA*e[5mC]*e[5mC]*eT*e[5mC]*eG*eT*e[5mC]*e[5mC]*e[5mC]*e[5mC]*eT*e[5mC]*eA*e[5mC]*eT) | 1.076 fold change |  |
| CO-7047 (antisense eG*eA*eG*eT*eT*eG*eT*eG*eT*eT*eT*eT*eG*e[5mC]*eT*eT*eG*eG*eT*e[5mC]) | 1.175 fold change |  |
| CO-4011 (antisense eT*e[5mC]*e[5mC]*eA*eA*e[5mC]*eA*e[5mC]*e[5mC]*eG*eT*eA*e[5mC]*eT*e[5mC]*eA*eT*eT*eT*e[5mC]) | 1.184 fold change |  |
